Each compound was assayed against human fatty acid synthase FASN (Homo sapiens (Human), UniProt P49327) (assay: Biochemical activity testing of human fatty acid synthase FASN (NADPH fluorescence intensity enzyme assay)). Conditions: human recombinant full-length fatty acid synthase.
Description: Biochemical activity testing of human fatty acid synthase FASN
Fatty acid synthase FASN is a multifunctional enzyme with seven catalytic activities thereby synthesising long chain fatty acids especially palmitoyl-CoA in the presence of co-factor NADPH starting from the substrates acetyl-CoA and malonyl-CoA. The reductive synthesis is realized by the oxidation of NADPH to NADP. Since NADPH has a high fluorescence intensity quantum yield compared to NADP with excitation at 340 nm and emission at 460 nm, the reaction can be monitored via the decrease in fluorescence intensity. The biochemical FASN activity testing was performed as 384 well two-time-point kinetic fluorescence intensity assay format in Greiner low volume medium binding 384-well black microtiter plates in a total assay volume of 8 μl and was used for high throughput screen. In each well 3 μl 40 nM human recombinant full-length fatty acid synthase (produced in-house in SF9 cells) were dispensed in the following assay buffer: 50 mM potassium phosphate buffer pH 7.0, 0.005% (w/v) BSA, 2 mM Glutathione, 0.02% Tween-20. Then 2 μl of 200 μM NADPH in assay buffer were added, followed by the addition of the test compounds in 10 dilution concentrations starting with 30 μM (final concentration) to get a final DMSO content of 1% (v/v). The mixture was incubated for at least 15 min at room temperature. After the pre-incubation the enzymatic reaction was started by the addition of 2 μl substrate solution (80 μM acetyl-CoA, 240 μM malonyl-CoA). A first fluorescence intensity measurement (time point one) was performed with an Envision multimode reader (Perkin Elmer LAS Germany GmbH) at excitation wavelength 340 nm (lamp mode) and emission wavelength 460 nm. The reaction was incubated for 30 minutes at room temperature. After this the fluorescence intensity was measured again in the Envision using the same parameters as described above (second time point measurement). The data were analysed by subtracting the first time point measurement value from the second time point measurement value (after the enzymatic reaction). The differences of the emission signals were determined. These reflect directly the conversion rate of NADPH. The full value used was the inhibitor-free reaction. A pharmacological zero value was used like GSK837149A (Sigma-Aldrich) in a final concentration of 5-10 μM. The inhibitory values (IC50) were determined using either the program Symyx Assay Explorer® or Condosseo® from GeneData.

human fatty acid synthase FASN, sequence (P49327 whole entry): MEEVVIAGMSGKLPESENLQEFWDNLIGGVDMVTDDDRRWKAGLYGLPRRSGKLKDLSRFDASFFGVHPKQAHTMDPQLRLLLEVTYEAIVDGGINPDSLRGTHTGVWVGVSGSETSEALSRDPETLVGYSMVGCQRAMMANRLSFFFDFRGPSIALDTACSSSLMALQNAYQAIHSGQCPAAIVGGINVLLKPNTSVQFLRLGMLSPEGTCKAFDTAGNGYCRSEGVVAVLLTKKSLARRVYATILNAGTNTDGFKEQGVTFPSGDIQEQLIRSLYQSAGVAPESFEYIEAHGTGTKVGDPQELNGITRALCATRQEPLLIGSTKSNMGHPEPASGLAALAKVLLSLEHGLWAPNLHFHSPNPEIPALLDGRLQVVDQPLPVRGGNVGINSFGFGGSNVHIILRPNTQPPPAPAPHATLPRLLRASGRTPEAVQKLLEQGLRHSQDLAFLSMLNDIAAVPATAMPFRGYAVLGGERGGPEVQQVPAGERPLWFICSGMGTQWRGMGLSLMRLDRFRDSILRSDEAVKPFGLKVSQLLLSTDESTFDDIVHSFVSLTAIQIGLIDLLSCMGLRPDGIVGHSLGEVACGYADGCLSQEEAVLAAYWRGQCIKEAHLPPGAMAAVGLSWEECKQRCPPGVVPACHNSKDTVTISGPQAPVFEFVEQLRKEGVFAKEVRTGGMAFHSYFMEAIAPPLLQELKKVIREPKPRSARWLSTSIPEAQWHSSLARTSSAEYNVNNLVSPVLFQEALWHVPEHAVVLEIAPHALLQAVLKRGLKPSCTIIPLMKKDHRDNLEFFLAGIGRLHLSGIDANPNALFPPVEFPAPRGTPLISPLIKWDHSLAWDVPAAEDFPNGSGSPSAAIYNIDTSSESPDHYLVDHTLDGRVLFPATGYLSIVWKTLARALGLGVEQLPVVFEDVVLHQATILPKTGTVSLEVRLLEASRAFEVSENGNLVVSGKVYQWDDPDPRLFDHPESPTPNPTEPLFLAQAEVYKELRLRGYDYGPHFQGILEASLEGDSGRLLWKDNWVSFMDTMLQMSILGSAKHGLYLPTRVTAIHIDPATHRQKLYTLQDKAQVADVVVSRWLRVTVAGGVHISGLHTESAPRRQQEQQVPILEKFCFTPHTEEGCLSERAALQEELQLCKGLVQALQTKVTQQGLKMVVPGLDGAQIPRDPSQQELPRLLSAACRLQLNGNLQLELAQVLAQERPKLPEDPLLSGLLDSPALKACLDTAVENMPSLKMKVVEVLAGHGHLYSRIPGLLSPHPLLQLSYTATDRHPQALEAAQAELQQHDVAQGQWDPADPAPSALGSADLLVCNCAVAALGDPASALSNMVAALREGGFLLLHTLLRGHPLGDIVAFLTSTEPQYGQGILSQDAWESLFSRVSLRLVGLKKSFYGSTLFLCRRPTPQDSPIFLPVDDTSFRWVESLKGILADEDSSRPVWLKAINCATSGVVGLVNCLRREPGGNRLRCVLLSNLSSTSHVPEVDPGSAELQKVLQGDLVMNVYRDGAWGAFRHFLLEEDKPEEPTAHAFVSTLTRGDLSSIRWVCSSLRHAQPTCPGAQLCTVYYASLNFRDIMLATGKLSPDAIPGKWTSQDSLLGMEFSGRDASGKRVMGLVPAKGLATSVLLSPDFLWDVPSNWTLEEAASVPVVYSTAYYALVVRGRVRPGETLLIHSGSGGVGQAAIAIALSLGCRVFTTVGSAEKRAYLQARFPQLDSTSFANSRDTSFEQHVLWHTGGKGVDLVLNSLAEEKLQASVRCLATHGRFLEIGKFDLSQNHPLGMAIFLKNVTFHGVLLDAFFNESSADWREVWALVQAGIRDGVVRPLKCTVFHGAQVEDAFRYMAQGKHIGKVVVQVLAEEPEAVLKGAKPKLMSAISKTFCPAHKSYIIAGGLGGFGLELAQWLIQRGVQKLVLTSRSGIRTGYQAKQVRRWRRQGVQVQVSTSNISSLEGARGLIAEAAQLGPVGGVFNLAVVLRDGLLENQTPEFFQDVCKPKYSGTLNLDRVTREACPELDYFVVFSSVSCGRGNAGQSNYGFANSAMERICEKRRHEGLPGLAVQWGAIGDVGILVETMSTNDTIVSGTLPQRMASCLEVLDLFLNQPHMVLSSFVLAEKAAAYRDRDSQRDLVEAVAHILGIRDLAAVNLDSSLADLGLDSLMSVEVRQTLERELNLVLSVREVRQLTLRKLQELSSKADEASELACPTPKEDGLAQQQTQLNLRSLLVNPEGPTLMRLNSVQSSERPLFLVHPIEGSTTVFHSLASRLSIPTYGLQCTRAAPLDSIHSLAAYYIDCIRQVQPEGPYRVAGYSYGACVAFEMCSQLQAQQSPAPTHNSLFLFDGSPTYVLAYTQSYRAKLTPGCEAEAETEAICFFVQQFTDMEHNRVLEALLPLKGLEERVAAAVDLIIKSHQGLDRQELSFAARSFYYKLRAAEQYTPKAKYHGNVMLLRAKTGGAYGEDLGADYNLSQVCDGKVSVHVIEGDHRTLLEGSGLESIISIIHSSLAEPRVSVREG

IC50 [nM] | SMILES
< 300 | CCC(=O)N[C@H]1CC[C@@H](N(C)C(=O)c2ccc(-c3ccc4[nH]ccc4c3)nn2)C1 [Compound A113, 6-(1H-indol-5-yl)-pyridazine-3-carboxylic acid methyl-((1R,3S)-3-propionylamino-cyclopentyl)-amide]
< 300 | CCC(=O)N[C@H]1CC[C@@H](N(C)C(=O)c2ccc(-c3ccc(OCC4CC4)cc3)cc2)C1 [Compound A70, 4′-cyclopropylmethoxy-biphenyl-4-carboxylic acid methyl-((1R,3S)-3-propionylamino-cyclopentyl)-amide]
< 300 | CCC(=O)N[C@H]1CC[C@@H](N(C)C(=O)c2ccc(-c3ccc4[nH]cc(CN)c4c3)cc2)C1 [Compound A130, 4-(3-aminomethyl-1H-indol-5-yl)-N-methyl-N-((1R,3S)-3-propionylamino-cyclopentyl)-benzamide]
< 300 | CN(C(=O)c1ccc(-c2nc3ccc(Cl)cc3o2)nc1)[C@@H]1CC[C@H](NC(=O)[C@@H]2CCCO2)C1 [Compound A154, 6-(6-chloro-benzoxazol-2-yl)-N-methyl-N-{(1R,3S)-3-[((S)-tetrahydro-furan-2-carbonyl)-amino]-cyclopentyl}-nicotinamide]
< 300 | CCC(=O)N[C@H]1CC[C@@H](N(C)C(=O)c2ccc(-c3ccc4c(ccn4C)c3)c(F)c2)C1 [Compound A108, 3-fluoro-N-methyl-4-(1-methyl-1H-indol-5-yl)-N-((1R,3S)-3-propionylamino-cyclopentyl)-benzamide]
< 300 | CCC(=O)N[C@H]1CC[C@@H](N(C)C(=O)c2ncc(-c3ccc4[nH]ccc4c3)cn2)C1 [Compound A131, 5-(1H-indol-5-yl)-pyrimidine-2-carboxylic acid methyl-((1R,3S)-3-propionylamino-cyclopentyl)-amide]
300 to 3000 | CCC(=O)N[C@H]1CC[C@@H](N(C)C(=O)c2cnc(-c3cc(F)c4[nH]ccc4c3)cc2C)C1 [Compound A141, 6-(7-fluoro-1H-indol-5-yl)-4,N-dimethyl-N-((1R,3S)-3-propionylamino-cyclopentyl)-nicotinamide]
< 300 | CCC(=O)N[C@H]1CC[C@@H](N(C)C(=O)c2ccc(-c3ccc4[nH]cc(C(N)=O)c4c3)c(F)c2)C1 [Compound A160, 5-{2-fluoro-4-[methyl-((1R,3S)-3-propionylamino-cyclopentyl)-carbamoyl]-phenyl}-1H-indole-3-carboxylic acid amide]
< 300 | CCC(=O)N[C@H]1CC[C@@H](N(C)C(=O)c2ccc(-c3ccc(C#N)cc3)cc2)C1 [Compound A12, 4′-cyano-biphenyl-4-carboxylic acid methyl-((1R,3S)-3-propionylamino-cyclopentyl)-amide]
< 300 | CCC(=O)N[C@H]1CC[C@@H](N(C)C(=O)c2ccc(-c3ccc4c(ccn4C)c3)nn2)C1 [Compound A118, 6-(1-methyl-1H-indol-5-yl)-pyridazine-3-carboxylic acid methyl-((1R,3S)-3-propionylamino-cyclopentyl)-amide]
300 to 3000 | CCCC1CCC(c2ccc(-c3ccc(C(=O)N(C)[C@@H]4CC[C@H](NC(=O)CC)C4)cc3)cc2)OC1 (stereo partly drawn) [Compound A89, 4′-(5-propyl-tetrahydro-pyran-2-yl)-biphenyl-4-carboxylic acid methyl-((1R,3S)-3-propionylamino-cyclopentyl)-amide]
< 300 | CCC(=O)N[C@H]1CC[C@@H](N(C)C(=O)c2ncc(-c3ccc4c(ccn4C)c3)cn2)C1 [Compound A133, 5-(1-methyl-1H-indol-5-yl)-pyrimidine-2-carboxylic acid methyl-((1R,3S)-3-propionylamino-cyclopentyl)-amide]
< 300 | CCC(=O)N[C@H]1CC[C@@H](N(C)C(=O)c2ccc(-c3ccc4[nH]nc(C)c4c3)cc2)C1 [Compound A100, N-methyl-4-(3-methyl-1H-indazol-5-yl)-N-((1R,3S)-3-propionylamino-cyclopentyl)-benzamide]
300 to 3000 | CCC(=O)N[C@H]1CC[C@@H](N(C)C(=O)c2ccc(-c3cc(F)c4c(c3)CCN4)nc2)C1 [Compound A145, 6-(7-fluoro-2,3-dihydro-1H-indol-5-yl)-N-methyl-N-((1R,3S)-3-propionylamino-cyclopentyl)-nicotinamide]
< 300 | CN(C(=O)c1ccc(-c2nc3ccccc3o2)cc1)[C@@H]1CC[C@H](NC(=O)CC2CCCC2)C1 [Compound A44]
< 300 | CCC(=O)N[C@H]1CC[C@@H](N(C)C(=O)c2ccc(C#Cc3ccc(Cl)cc3)cc2)C1 [Compound A14, 4-(4-chloro-phenylethynyl)-N-methyl-N-((1R,3S)-3-propionylamino-cyclopentyl)-benzamide]
3000 to 50000 | CC(=O)N[C@@H](C)C(=O)N[C@H]1CC[C@@H](N(C)C(=O)c2ccc(-c3nc4ccccc4o3)cc2)C1 [Compound A47, N-[(1R,3S)-3-((S)-2-acetylamino-propionylamino)-cyclopentyl]-4-benzoxazol-2-yl-N-methyl-benzamide]
< 300 | CCC(=O)N[C@H]1CC[C@@H](N(C)C(=O)c2cnc(-c3ccc4[nH]ccc4c3F)cc2C)C1 [Compound A146, 6-(4-fluoro-1H-indol-5-yl)-4,N-dimethyl-N-((1R,3S)-3-propionylamino-cyclopentyl)-nicotinamide]
< 300 | CCC(=O)N[C@H]1CC[C@@H](N(C)C(=O)c2ccc(-c3ccc4cn[nH]c4c3)cc2)C1 [Compound A46, 4-(1H-indazol-6-yl)-N-methyl-N-((1R,3S)-3-propionylamino-cyclopentyl)-benzamide]
< 300 | CCC(=O)N[C@H]1CC[C@@H](N(C)C(=O)c2ccc(-c3ccc4c(c3)OCCO4)cc2)C1 [Compound A87, 4-(2,3-dihydro-benzo[1,4]dioxin-6-yl)-N-methyl-N-((1R,3S)-3-propionylamino-cyclopentyl)-benzamide]
< 300 | CCC(=O)N[C@H]1CC[C@@H](N(C)C(=O)c2ccc(-c3ccc4[nH]ccc4c3)c(C)c2)C1 [Compound A101, 4-(1H-indol-5-yl)-3,N-dimethyl-N-((1R,3S)-3-propionylamino-cyclopentyl)-benzamide]
300 to 3000 | CCC(=O)N[C@H]1CC[C@@H](N(C)C(=O)c2cnc(-c3cc(F)c4[nH]ccc4c3)c(F)c2)C1 [Compound A142, 5-fluoro-6-(7-fluoro-1H-indol-5-yl)-N-methyl-N-((1R,3S)-3-propionylamino-cyclopentyl)-nicotinamide]
< 300 | CCC(=O)N[C@H]1CC[C@@H](N(C)C(=O)c2ccc(-c3ccc4c(cnn4C)c3)cc2)C1 [Compound A75, N-methyl-4-(1-methyl-1H-indazol-5-yl)-N-((1R,3S)-3-propionylamino-cyclopentyl)-benzamide]
< 300 | CCC(=O)N[C@H]1CC[C@@H](N(C)C(=O)c2ccc(-c3ccc4[nH]ccc4c3)nc2)C1 [Compound A117, 6-(1H-indol-5-yl)-N-methyl-N-((1R,3S)-3-propionylamino-cyclopentyl)-nicotinamide]
< 300 | CCC(=O)N[C@H]1CC[C@@H](N(C)C(=O)c2ccc(-c3ccc(C(=O)O)cc3)cc2)C1 [Compound A51, 4′-[methyl-((1R,3S)-3-propionylamino-cyclopentyl)-carbamoyl]-biphenyl-4-carboxylic acid]
< 300 | C[C@H](O)C(=O)N[C@H]1CC[C@@H](N(C)C(=O)c2ccc(-c3nc4ccccc4o3)cc2)C1 [Compound A37, 4-benzoxazol-2-yl-N-[(1R,3S)-3-((S)-2-hydroxy-propionylamino)-cyclopentyl]-N-methyl-benzamide]
< 300 | CCC(=O)N[C@H]1CC[C@@H](N(C)C(=O)c2ccc(-c3ccc4[nH]ncc4c3C)c(C)c2)C1 [Compound A124, 3,N-dimethyl-4-(4-methyl-1H-indazol-5-yl)-N-((1R,3S)-3-propionylamino-cyclopentyl)-benzamide]
< 300 | CCC(=O)N[C@H]1CC[C@@H](N(C)C(=O)c2ccc(-c3ccc(F)cc3F)cc2)C1 [Compound A83, 2′,4′-difluoro-biphenyl-4-carboxylic acid methyl-((1R,3S)-3-propionylamino-cyclopentyl)-amide]
300 to 3000 | CN(C(=O)c1ccc(-c2nc3ccccc3o2)cc1)[C@@H]1CC[C@H](NC(=O)c2ccccc2)C1 [Compound A20, 4-benzoxazol-2-yl-N-((1R,3S)-3-benzoylamino-cyclopentyl)-N-methyl-benzamide]
< 300 | CCC(=O)N[C@H]1CC[C@@H](N(C)C(=O)c2ccc(-c3cnc4ccccc4c3)cc2)C1 [Compound A72, N-methyl-N-((1R,3S)-3-propionylamino-cyclopentyl)-4-quinolin-3-yl-benzamide]

SMILES | IC50 [nM]
CCC(=O)N[C@H]1CC[C@@H](N(C)C(=O)c2ccc(-c3nc4ccccc4o3)cc2)C1 [Compound A1, 4-benzoxazol-2-yl-N-methyl-N-((1R,3S)-3-propionylamino-cyclopentyl)-benzamide] | < 300
